In the NIST ThermoML archive (doi:10.1021/je030102f):

Experiment: xn = mol fraction of the nth substance listed
Conditions: 101.33 kPa, Liquid, vibrating tube

CCC(=O)O [propanoic acid] + CC(C)=O
mass density [kg/m3]
Conditions | x2 = 0 | x2 = 0.1014 | x2 = 0.1991 | x2 = 0.3046 | x2 = 0.4011 | x2 = 0.5001 | x2 = 0.603 | x2 = 0.6887 | x2 = 0.7703 | x2 = 0.8987
283.15 K | 1004.11 | 987.375 | 970.353 | 951.246 | 933.088 | 913.785 | 892.899 | 874.585 | 856.85 | 826.598
288.15 K | 998.688 | 982.013 | 965.023 | 945.944 | 927.765 | 908.446 | 887.52 | 869.18 | 851.407 | 821.062
293.15 K | 993.261 | 976.644 | 959.68 | 940.613 | 922.423 | 903.081 | 882.117 | 863.74 | 845.923 | 815.482
298.14 K | – | – | 954.344 | – | 917.072 | 897.705 | – | 858.28 | 840.415 | 809.87
298.15 K | 987.847 | 971.282 | – | 935.277 | – | – | 876.699 | – | – | –
303.14 K | 982.44 | 965.92 | 948.999 | 929.933 | 911.708 | 892.312 | 871.26 | 852.794 | 834.877 | 804.221
308.15 K | 977.037 | 960.555 | 943.653 | 924.579 | 906.33 | 886.9 | 865.798 | 847.276 | 829.305 | 798.532
313.14 K | 971.635 | 955.192 | – | – | – | – | 860.309 | – | 823.695 | –
313.15 K | – | – | 938.294 | 919.21 | 900.935 | 881.462 | – | 841.731 | – | 792.797
318.14 K | 966.24 | 949.825 | 932.928 | 913.828 | 895.523 | 876.007 | 854.791 | 836.154 | 818.051 | 787.018
323.14 K | 960.843 | – | 927.551 | 908.43 | 890.087 | – | – | – | 812.366 | 781.194
323.15 K | – | 944.448 | – | – | – | – | 849.244 | 830.541 | – | –

CCC(=O)O [propanoic acid] + O
mass density [kg/m3]
Conditions | x1 = 0.1298 | x1 = 0.2029 | x1 = 0.3012 | x1 = 0.4007 | x1 = 0.5008 | x1 = 0.5989 | x1 = 0.6974 | x1 = 0.7965 | x1 = 0.8915 | x1 = 1
283.15 K | 1026.89 | 1033.97 | 1034.47 | 1032.63 | 1029.26 | 1025.17 | 1020.51 | 1015.43 | 1010.32 | 1004.11
288.14 K | – | – | – | 1027.99 | – | – | – | – | 1005.04 | –
288.15 K | 1023.97 | 1030.05 | 1029.92 | – | 1024.44 | 1020.22 | 1015.46 | 1010.26 | – | 998.688
293.14 K | – | 1026.08 | 1025.58 | – | – | – | 1010.39 | – | – | –
293.15 K | 1020.98 | – | – | 1023.31 | 1019.59 | 1015.26 | – | 1005.1 | 999.76 | 993.261
298.14 K | – | 1022.05 | 1021.14 | – | 1014.72 | – | 1005.31 | 999.927 | – | –
298.15 K | 1017.85 | – | – | 1018.61 | – | 1010.28 | – | – | 994.478 | 987.847
303.14 K | 1014.61 | – | 1016.76 | 1013.88 | 1009.8 | 1005.29 | – | 994.744 | – | 982.44
303.15 K | – | 1017.97 | – | – | – | – | 1000.22 | – | 989.192 | –
308.14 K | – | – | – | – | – | – | – | 989.551 | – | –
308.15 K | 1011.28 | 1013.84 | 1012.25 | 1009.12 | 1004.17 | 1000.27 | 995.12 | – | 983.905 | 977.037
313.14 K | 1007.85 | 1009.64 | 1007.69 | – | 999.956 | 995.242 | 990.001 | – | 978.613 | 971.635
313.15 K | – | – | – | 1004.33 | – | – | – | 984.345 | – | –
318.14 K | 1004.32 | 1005.39 | 1003.09 | 999.507 | 994.902 | 990.186 | 984.864 | 979.126 | 973.307 | 966.24
323.14 K | 1000.71 | 1001.09 | 998.434 | 994.651 | – | 985.106 | – | 973.895 | 967.999 | –
323.15 K | – | – | – | – | 990.008 | – | 979.705 | – | – | 960.843

CC(C)=O [acetone] + O
mass density [kg/m3]
Conditions | x1 = 0.0988 | x1 = 0.2193 | x1 = 0.2973 | x1 = 0.3998 | x1 = 0.4986 | x1 = 0.5903 | x1 = 0.6984 | x1 = 0.7934 | x1 = 0.8916 | x1 = 1
283.15 K | 966.507 | 932.823 | 913.382 | 889.08 | 868.988 | 853.092 | 836.647 | 824.028 | 812.997 | 801.669
288.15 K | 963.567 | 928.61 | 908.777 | 884.145 | 863.861 | 847.829 | 831.252 | 818.534 | 807.424 | 796.037
293.14 K | – | 924.322 | 904.105 | 879.148 | – | – | – | – | – | –
293.15 K | 960.497 | – | – | – | 858.674 | 842.508 | 825.797 | 812.982 | 801.797 | 790.355
298.14 K | 957.313 | 919.968 | 899.375 | 874.098 | – | 837.135 | 820.292 | 807.383 | 796.13 | –
298.15 K | – | – | – | – | 853.436 | – | – | – | – | 784.638
303.14 K | – | 915.544 | 894.587 | 868.996 | 848.142 | 831.707 | 814.735 | 801.735 | 790.413 | 778.876
303.15 K | 954.01 | – | – | – | – | – | – | – | – | –
308.14 K | – | – | – | – | – | 826.22 | – | – | – | –
308.15 K | 950.61 | 911.052 | 889.735 | 863.836 | 842.791 | – | 809.12 | 796.028 | 784.645 | 773.065
313.14 K | 947.117 | 906.488 | 884.822 | 858.617 | – | 820.677 | 803.446 | 790.262 | 778.818 | 767.205
313.15 K | – | – | – | – | 837.381 | – | – | – | – | –
318.14 K | – | 901.855 | 879.849 | 853.341 | 831.924 | – | – | 784.437 | 772.936 | 761.288
318.15 K | 943.497 | – | – | – | – | 815.068 | 797.707 | – | – | –
323.14 K | – | – | 874.812 | 848.021 | 826.399 | – | 791.9 | 778.546 | 766.99 | 755.314
323.15 K | 939.767 | 897.151 | – | – | – | 809.395 | – | – | – | –
